# Columns and labels:
# Assay type in all cases: in vivo
# IgE = experiment: Plasma IgE levels in OVA-sensitized mice, ELISA (Experimental Groups I); conditions: 1 mg/Kg i.p.; vs OVA group; FIG. 10 panel C
# Protocol: Female Balb/c (8-week-old, Charles River, Calco, Italy) were housed in the animal care facility of the Department of Pharmacy of the University of Naples, Italy in a controlled environment (temperature 21±2° C. and humidity 60±10%) and provided with standard rodent chow and water. All animals were allowed to acclimate for four days prior to experiments and were subjected to 12 h light−12 h dark schedule. Experiments were conducted during the light phase. The experimental procedures were approved by the Italian Ministry according to International and National law and policies (EU Directive 2010/63/EU and Italian DL 26/2014 for animal experiments). […] The compounds were dissolved in DMSO (Sigma Chemical Co., St. Louis, MO) at concentrations at which the determined dose per animal results from the intraperitoneal administration of 100 μl of solution (1:10 DMSO) and intra-nasal (i.n.) administration of 10 μl/animal (5 μl/nostril) of the solutions. […] Plasma levels of IgE were measured as index of sensitization. […] Total IgE levels were measured by means of ELISA using matched antibody pairs (BD Biosciences Pharmingen San Jose, CA).
# OVA-sensitized mice = experiment: Bronchial relaxation to salbutamol, isolated bronchi of OVA-sensitized mice (Experimental Groups I); conditions: 1 mg/Kg i.p.; rings precontracted with carbachol; vs OVA group; FIG. 10B
# [1] = system: mice with OVA-induced allergic asthma; experiment: Lung hyperreactivity/Penh function, whole body plethysmography, intra-nasal FB, F, B (Experimental Groups II); conditions: i.n. daily 2 weeks, all tested doses: FB 0.3, 1.0, 3.0 nmol/animal, vs untreated OVA group
compound,measurement,setting,value
"CCCC1OC2CC3C4CCC5=CC(=O)C=CC5(C)C4C(O)CC3(C)C2(C(=O)COP(=O)(O)O)O1 (stereo not shown) [B, Budesonide 21-phosphate]",OVA induced increase of IgE plasma levels,IgE,significantly reduced OVA induced increase of IgE plasma levels
same,bronchial relaxation to salbutamol,OVA-sensitized mice,did not ameliorate the lack of bronchial response to salbutamol
same,area under the Penh-metacholine concentration curve (AUC),[1]; B 3.0 nmol/animal,showed no effect
same,Penh maximal response Emax to inhaled metacholine,[1]; F and B 3.0 nmol/animal,showed no effect

# — patent publication US12465614B2, “Budesonide 21-phosphate salts and pharmaceutical compositions containing the same” (GENETIC S.P.A., priority 2020, dated 2025)
